Patent US20240117405A1, “COLORIMETRIC BIOSENSOR, PREPARATION METHOD THEREOF, AND ANTIBIOTIC SUSCEPTIBILITY TESTING METHOD USING THE SAME” (INHA UNIVERSITY RESEARCH AND BUSINESS FOUNDATION, priority 2022, published 2024)

Tested on: methicillin-resistant Staphylococcus Aureus (MRSA)
Test: Antibiotic susceptibility test using encapsulated colorimetric biosensor
Assay type: cell-based
Settings: MRSA 10^6 CFU/mL, 37° C.; for time until color change (blue->red) of the colorimetric biosensor: photographed up to 15 hours
Description: An antibiotic susceptibility test was performed on the colorimetric biosensor in encapsulated form prepared in Example 1, and the results are shown in FIG. 5.
Specifically, an encapsulated colorimetric biosensor was prepared from Example 1 and introduced into wells containing 2 and 4 μg/mL of ampicillin antibiotics (See FIGS. 5B and 5C) and 0.25, 2 and 4 μg/mL of vancomycin antibiotics (See FIGS. 5D, 5E, and 5F). Further, for the antibiotic susceptibility test, methicillin-resistant Staphylococcus Aureus (MRSA) bacteria, which are resistant to ampicillin and susceptible to vancomycin, were injected into each well at an amount of 10^6 CFU/mL. For comparative experiments, wells containing only the colorimetric biosensor and bacteria (See FIG. 5A) and wells containing only the colorimetric biosensor (See FIG. 5G) were also prepared. In order to induce the growth of MRSA and the color change of the biosensor accordingly, they were cultured at a temperature of 37° C., and each well plate was photographed at 0, 5, 6, 7, 9, 12, 13 and 15 hours to compare the color change.

SMILES	time until color change (blue->red) of the colorimetric biosensor (0.25 μg/mL antibiotic) [h]	time until color change (blue->red) of the colorimetric biosensor (2 μg/mL antibiotic)	time until color change (blue->red) of the colorimetric biosensor (4 μg/mL antibiotic)	susceptibility or resistance of MRSA to the antibiotic as determined by biosensor color change	concentration from which MRSA shows susceptibility (no color change) (tested 0.25, 2 and 4 μg/mL) [µg/mL]
CN[C@H](CC(C)C)C(=O)N[C@H]1C(=O)N[C@@H](CC(N)=O)C(=O)N[C@H]2C(=O)N[C@H]3C(=O)N[C@H](C(=O)N[C@H](C(=O)O)c4cc(O)cc(O)c4-c4cc3ccc4O)[C@H](O)c3ccc(c(Cl)c3)Oc3cc2cc(c3O[C@@H]2O[C@H](CO)[C@@H](O)[C@H](O)[C@H]2O[C@H]2C[C@](C)(N)[C@H](O)[C@H](C)O2)Oc2ccc(cc2Cl)[C@H]1O [vancomycin]	9	no color change was observed	no color change was observed	susceptibility	2
CC1(C)S[C@@H]2[C@H](NC(=O)[C@H](N)c3ccccc3)C(=O)N2[C@H]1C(=O)O [ampicillin]		9 h	13 h	resistance	
